One block for each molecule: values may come before it.
What was measured:
Peptide deformylase = molecular target: T1, Peptide deformylase (Escherichia coli, UniProt Q9JN24); assay: Compound was evaluated for inhibitory activity against Peptide deformylase
T1 sequence (Q9JN24 whole entry): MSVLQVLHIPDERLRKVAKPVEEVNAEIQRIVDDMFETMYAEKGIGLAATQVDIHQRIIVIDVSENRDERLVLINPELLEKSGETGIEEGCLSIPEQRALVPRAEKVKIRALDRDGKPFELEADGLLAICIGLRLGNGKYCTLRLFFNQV

[1] = Compound was evaluated for inhibitory activity against Zn2+ deformylase.
[2] = substrate: CCCC[C@H](O[PH](=O)O)C(=O)N[C@@H](CC(C)C)C(=O)Nc1ccc([N+](=O)[O-])cc1
Description: Apparent KM against enzyme peptide deformylase (PDF)

Ki (Peptide deformylase): 37 µM
Ki [1]: 76 µM
Molecule: CCCC[C@H](O[PH](=O)O)C(=O)N[C@@H](CC(C)C)C(=O)Nc1ccc([N+](=O)[O-])cc1

Ki (Peptide deformylase): 125 µM
Molecule: CCCC[C@@H](O[PH](=O)O)C(=O)N[C@@H](CC(C)C)C(=O)Nc1ccc([N+](=O)[O-])cc1

B1: Peptide deformylase, mitochondrial (Homo sapiens), Q9HBH1 (protein)
chain: MARLWGALSLWPLWAAVPWGGAAAVGVRACSSTAAPDGVEGPALRRSYWRHLRRLVLGPPEPPFSHVCQVGDPVLRGVAAPVERAQLGGPELQRLTQRLVQVMRRRRCVGLSAPQLGVPRQVLALELPEALCRECPPRQRALRQMEPFPLRVFVNPSLRVLDSRLVTFPEGCESVAGFLACVPRFQAVQISGLDPNGEQVVWQASGWAARIIQHEMDHLQGCLFIDKMDSRTFTNVYWMKVND
Km [2]: 20 µM
